According to US10709745B2, “Tropic cell based virotherapy for the treatment of cancer” (priority 2013, dated 2020):

Assays:
GBM43 glioma xenografts = assay: Intracranial GBM43 xenograft: TMZ, XRT and CRAd-S-pk7-loaded NSCs; assay type: in vivo, nude mice
Procedure: FIGS. 43A, 43B and 43C illustrate the in vivo efficacy of CRAd-Survivin-pk7 (CRAd-S-pk7)-loaded NSCs and XRT-TMZ treatment against human-derived glioma xenografts according to one embodiment. Intracranial GBM43 (3.5×10^5 cells per animal) was established, and the animals were treated for 5 consecutive days beginning on day 6 after tumor cell implantation. (FIG. 43A): Survival of animals treated with escalating doses of intraperitoneally administered TMZ (0, 5, 10, or 30 mg/kg). (FIG. 43B): Survival of animals treated with XRT (2 Gy) or a combination of XRT (2 Gy) and TMZ (2.5, 5, 10, or 30 mg/kg). (FIG. 43C): Survival of animals treated with the optimized dose of 2 Gy XRT and 5 mg/kg TMZ in addition to 5×10^5 or 3×10^6 NSCs loaded with 50 infectious units of CRAd-S-pk7. […] Abbreviations: ND, not determined; ns, no significance; NSC, neural stem cell; TMZ, temozolomide; XRT, radiation therapy.
FIGS. 45A and 45B illustrate the scheduling of CRAd-Survivin-pk7 (CRAd-S-pk7)-loaded NSC administration in vivo according to one embodiment. (FIG. 45A): Survival of animals treated with both therapeutic scheduling protocols. […] For each treatment group, five images were taken using the […]20 objective, and the number of positive cells was quantified per field of view (right). *, p<0.05; **, p<0.01; ***, p<0.001. […]

[1] = human, in vivo; cited from earlier work

Cn1nnc2c(C(N)=O)ncn2c1=O [TMZ, temozolomide]
increase in survival vs XRT-treated animals (GBM43 glioma xenografts; TMZ 5 mg/kg plus XRT 2 Gy ×5): 7 days
median survival (GBM43 glioma xenografts; TMZ 5 mg/kg plus XRT 2 Gy ×5 (FIG. 43B)): 31 days
intratumoral concentration (likely range) [1]: 5 to 50 µM
peak concentration in patient's blood [1]: 50 µmol/L
peak concentration in the cerebral spinal fluid [1]: 5 µmol/L
